The results in this text go back to patent publication US20070191336A1 (priority 2003, published 2007).

T1 sequence (Q16539 whole entry): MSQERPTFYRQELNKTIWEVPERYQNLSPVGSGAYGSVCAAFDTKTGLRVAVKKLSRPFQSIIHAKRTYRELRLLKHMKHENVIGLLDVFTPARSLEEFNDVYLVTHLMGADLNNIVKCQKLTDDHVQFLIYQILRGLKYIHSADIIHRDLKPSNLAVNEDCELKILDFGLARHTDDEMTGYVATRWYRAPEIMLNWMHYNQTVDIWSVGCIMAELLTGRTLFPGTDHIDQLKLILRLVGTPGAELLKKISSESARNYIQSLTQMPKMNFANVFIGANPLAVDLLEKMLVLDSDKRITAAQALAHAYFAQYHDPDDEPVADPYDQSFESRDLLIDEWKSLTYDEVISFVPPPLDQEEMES

The first experiment has as its target T1, phospho p-38 alpha kinase (Homo sapiens, UniProt Q16539).
T1 construct: purchased Panvera
Kind of experiment: P-38 alpha kinase assay (spectrophotometric, pyruvate kinase/lactate dehydrogenase coupled). The experiment is classed as biochemical. Particulars: Table 2; rates from […] to 2 h time frame.
Compound `CC(C)(C)c1cc(NC(=O)Nc2ccc(Cl)cc2)n(-c2cccc(CO)c2)n1` [Example F] yielded an IC50 of 437 nM.

The experiment is the same for the next values; noted with them: Table 3; at 10 uM.
Turning to `CC(C)c1cc(NC(=O)Nc2ccc(Cl)cc2)n(-c2cccc(CCC(=O)O)c2)n1` [Example 532], the “% Inhibition @ concentration” value is recorded as 66% @ 10. The same measure, in the same setting: next, `CC(C)c1cc(NC(=O)Nc2ccc(Cl)cc2)n(-c2cccc(CCC(=O)O)c2)n1` [Example 533, 3-(3-(5-(3-(4-chlorophenyl)ureido)-3-isopropyl-1H-pyrazol-1-yl)phenyl)propanoic acid]: 39% @ 10.

The same experiment, now with this note: Table 3; rates from […] to 2 h time frame.
In turn, `CC(C)(C)c1cc(NC(=O)Nc2cccc3ccccc23)n(-c2cccc(CNC(=O)N3CCCC3)c2)n1` [Example 486, 1-(3-t-butyl-1-{3-[(pyrrolidine-1-carboxamido)methyl]phenyl}-1H-pyrazol-5-yl)-3-(naphthalen-1-yl)urea] showed an IC50 of 57 nM. In turn, `CN(C)C(=O)NCc1cccc(-n2nc(C(C)(C)C)cc2NC(=O)Nc2cccc3ccccc23)c1` [Example 487, 1-{3-t-butyl-1-[3-(3,3-dimethylureidomethyl)phenyl]-1H-pyrazol-5-yl}-3-(naphthalen-1-yl)urea] displayed an IC50 of 38 nM. Compared with the last compound, the IC50 is about 1.5-fold lower. The compound `CC(C)(C)c1cc(NC(=O)Nc2ccc(Cl)cc2)n(-c2cccc(CNC(=O)N3CCCCC3)c2)n1` [Example 488, 1-(3-t-butyl-1-{3-{(piperidine-1-carboxamido)methyl]phenyl}-1H-pyrazol-5-yl)-3-(4-chlorophenyl)urea] came in with an IC50 of 540 nM. In turn, `CC(C)(C)c1cc(NC(=O)Nc2ccc(Cl)cc2)n(-c2cccc(CNC(=O)N3CCOCC3)c2)n1` [Example 489, 1-(3-t-butyl-1-{3-[(morpholine-4-carboxamido)methyl]phenyl}-1H-pyrazol-5-yl)-3-(4-chlorophenyl)urea] had an IC50 of 520 nM. In the case of `CC(C)(C)c1cc(NC(=O)Nc2ccc(Cl)cc2)n(-c2cccc(CNC(=O)N3CCCC3)c2)n1` [Example 490, 1-(3-t-butyl-1-{3-[(pyrrolidine-1-carboxamido)methyl]phenyl}-1H-pyrazol-5-yl)-3-(4-chlorophenyl)urea], the IC50 was 340 nM. Still for that read-out and setting: the figure for `CN(C)C(=O)NCc1cccc(-n2nc(C(C)(C)C)cc2NC(=O)Nc2ccc(Cl)cc2)c1` [Example 491, 1-{3-t-butyl-1-[3-(3,3-dimethylureidomethyl)phenyl]-1H-pyrazol-5-yl}-3-(4-chlorophenyl)urea] is 340 nM; for `CN1CCN(C(=O)NCc2cccc(-n3nc(C(C)(C)C)cc3NC(=O)Nc3cccc4ccccc34)c2)CC1` [Example 492, 1-(3-t-butyl-1-{3-[(1-methylpiperazine-4-carboxamido)methyl]phenyl)-1H-pyrazol-5-yl)-3-(naphthalen-1-yl)urea] it is 40 nM. With `CC(C)(C)c1cc(NC(=O)Nc2ccc(Cl)cc2)n(-c2cccc(CN3C(=O)C(=O)N(c4ccccc4)C3=O)c2)n1` [Example 494, 1-(3-t-butyl-1-(3-[(2,4,5-trioxo-3-phenylimidazolidin-1-yl)methyl]phenyl}-1H-pyrazol-5-yl)-3-(4-chlorophenyl)urea], half-maximal inhibition (IC50) required 670 nM. This IC50 lies about 17-fold higher than the previous one. In the case of `CC(C)(C)c1cc(NC(=O)Nc2ccc(Cl)cc2)n(-c2cccc(Cn3c(=O)[nH]n(-c4ccccc4)c3=O)c2)n1` [Example 495, 1-(3-t-butyl-1-{3-[(3,5-dioxo-1-phenyl-1,2,4-triazolidin-4-yl)methyl]phenyl}-1H-pyrazol-5-yl)-3-(4-chlorophenyl)urea], the midpoint of inhibition, the IC50, lay at 250 nM. This IC50 is about 2.7-fold lower than that of the compound before. Same read-out and setting: the figure for `CC(C)(C)C1=NC(c2ccc(CC(=O)O)cc2)C(NC(=O)Nc2ccc(Cl)cc2)=C1` (stereo not drawn) [Example 506, 2-(4-{5-t-butyl-3-[3-(4-chlorophenyl)ureido]-2H-pyrrol-2-yl}-phenyl)acetic acid] is 42 nM. On to `CC(C)(C)c1cc(NC(=O)Nc2cccc(Cl)c2Cl)n(-c2ccc3c(c2)CNCC3)n1` [Example 508, 1-[3-t-butyl-(1,2,3,4-tetrahydroisoquinolin-7-yl)-1H-pyrazol-5-yl]-3-(2,3-dichlorophenyl)urea], for which it took 52 nM to reach half-maximal inhibition (IC50). As to `CC(C)(C)c1cc(NC(=O)Nc2cccc3ccccc23)n(-c2ccc3c(c2)CNCC3)n1` [Example 509, 1-[3-t-butyl-1-(1,2,3,4-tetrahydroisoquinolin-7-yl)-1H-pyrazol-5-yl]-3-(naphthalen-1-yl)urea], the IC50 turned out to be 500 nM. Compared with the last compound, the IC50 is about 9.6-fold higher. Regarding `CC(C)(C)c1cc(NC(=O)Nc2ccc(Cl)cc2)n(-c2ccc3c(c2)CNCC3)n1` [Example 510, 1-[3-t-butyl-1-(1,2,3,4-tetrahydroisoquinolin-7-yl)-1H-pyrazol-5-yl]-3-(4-chlorophenyl)urea], half-maximal inhibition (IC50) was put at 470 nM.

`Cn1[nH]c(=O)n(Cc2cccc(-n3nc(C(C)(C)C)cc3NC(=O)Nc3cccc(Cl)c3Cl)c2)c1=O` [Example 511, 1-{5-t-butyl-2-[3-(1-methyl-3,5-dioxo-[1,2,4]triazolidin-4-ylmethyl)-phenyl]-2H-pyrazol-3-yl}-3-(2,3-dichloro-phenyl)-urea] gave an IC50 of 24 nM. The compound `CC(=O)N1CCc2ccc(-n3nc(C(C)(C)C)cc3NC(=O)Nc3cccc(Cl)c3Cl)cc2C1` [Example 512, 1-[1-(2-acetyl-1,2,3,4-tetrahydroisoquinolin-7-yl)-3-t-butyl-1H-pyrazol-5-yl]-3-(2,3-dichlorophenyl)urea] had an IC50 of 32 nM. In turn, `CC(C)(C)c1cc(NC(=O)Nc2ccc3c(c2)OCO3)n(-c2ccc3c(c2)CNCC3)n1` [Example 513, 1-benzo[d][1,3]dioxol-5-yl-3-[3-t-butyl-1-(1,2,3,4-tetrahydroisoquinolin-7-yl)-1H-pyrazol-5-yl]urea] gave an IC50 of 410 nM. This IC50 is about 13-fold higher than that of the compound before. Turning to `CC(C)c1cc(NC(=O)Nc2cccc3ccccc23)n(-c2ccc(C(O)C(F)(F)F)cc2)n1` (stereo not drawn) [Example 514, 1-(1-(4-(2,2,2-trifluoro-1-hydroxyethyl)phenyl)-3-isopropyl-1H-pyrazol-5-yl)-3-(naphthalen-1-yl)urea], the IC50 is 570 nM. For `CC(C)(C)c1cc(NC(=O)Nc2ccc(Cl)cc2)n(-c2cccc(C(O)C(F)(F)F)c2)n1` (stereo not drawn) [Example 516, 1-(3-t-butyl-1-(3-(2,2,2-trifluoro-1-hydroxyethyl)phenyl)-1H-pyrazol-5-yl)-3-(4-chlorophenyl)urea], it took 450 nM to reach half-maximal inhibition (IC50). Take `COC(=O)COc1ccc(-n2nc(C(C)(C)C)cc2NC(=O)Nc2cccc3ccccc23)cc1` [Example 519, 1-(3-t-butyl-1-(4-(carbomethoxymethyl)oxyphenyl)-1H-pyrazol-5-yl)-3-(naphthalen-1-yl)urea]: the IC50 was found to be 52 nM. On the same count and under the same terms, the figure for `CC(C)(C)c1cc(NC(=O)Nc2cccc3ccccc23)n(-c2ccc(OCC(=O)O)cc2)n1` [Example 520, 1-(3-t-butyl-1-(4-(carboxymethyl)oxyphenyl)-1H-pyrazol-5-yl)-3-(naphthalen-1-yl)urea] is 9.2 nM. On the same count and under the same terms, next, `CC(C)(C)c1cc(NC(=O)Nc2ccccc2)n(-c2ccc(O)cc2)n1` [Example 522, 1-(3-t-butyl-1-(4-hydroxyphenyl)-1H-pyrazol-5-yl)-3-phenylurea]: 780 nM.

Still in this experiment, the particulars now being: read-out: % Inhibition @ concentration, Table 3; at 0.1 uM.
Take `CC(C)(C)c1cc(NC(=O)Nc2cccc(Cl)c2Cl)n(-c2cccc(Cn3c(=O)[nH]n(-c4ccccc4)c3=O)c2)n1` [Example 499, 1-(3-t-butyl-1-{3-[(3,5-dioxo-1-phenyl-1,2,4-triazolidin-4-yl)methyl]phenyl}-1H-pyrazol-5-yl)-3-(2,3-dichlorophenyl)urea]: the inhibition at 0.1 µM is 78%. Take `CC(C)(C)c1cc(NC(=O)Nc2ccc(Cl)cc2)n(-c2ccc(OCC(=O)O)cc2)n1` [Example 526, 1-(3-t-butyl-1-(4-(carboxymethyl)oxyphenyl)-1H-pyrazol-5-yl)-3-(4-chlorophenyl-1-yl)urea]: the inhibition at 0.1 µM turned out to be 25%.

The experiment is the same for the next values; noted with them: read-out: % Inhibition @ concentration, Table 3; at 1 uM.
As for `CN1CCN(C(=O)NCc2cccc(-n3nc(C(C)(C)C)cc3NC(=O)Nc3ccc(Cl)cc3)c2)CC1` [Example 493, 1-(3-t-butyl-1-{3-[(1-methylpiperazine-4-carboxamido)methyl]phenyl}-1H-pyrazol-5-yl)-3-(4-chlorophenyl)urea], the inhibition at 1 µM came out at 36%. For `CC(C)(C)c1cc(NC(=O)Nc2ccc(F)cc2)n(-c2cccc(Cn3c(=O)[nH]n(-c4ccccc4)c3=O)c2)n1` [Example 498, 1-(3-t-butyl-1-{3-[(3,5-dioxo-1-phenyl-1,2,4-triazolidin-4-yl)methyl]phenyl}-1H-pyrazol-5-yl)-3-(4-fluorophenyl)urea], the inhibition at 1 µM is 25%.

Take `CC(C)(C)c1cc(NC(=O)Nc2cccc(Cl)c2Cl)n(-c2cccc(Cn3c(=O)[nH]n(-c4ccccc4)c3=O)c2)n1` [Example 499, 1-(3-t-butyl-1-{3-[(3,5-dioxo-1-phenyl-1,2,4-triazolidin-4-yl)methyl]phenyl}-1H-pyrazol-5-yl)-3-(2,3-dichlorophenyl)urea]: the inhibition at 1 µM stood at 95%. Turning to `CCOC(=O)COc1ccc(-n2nc(C(C)(C)C)cc2NC(=O)Nc2ccc(Cl)cc2)cc1` [Example 525], the inhibition at 1 µM worked out at 11%. In the case of `CC(C)(C)c1cc(NC(=O)Nc2ccc(Cl)cc2)n(-c2ccc(OCC(=O)O)cc2)n1` [Example 526, 1-(3-t-butyl-1-(4-(carboxymethyl)oxyphenyl)-1H-pyrazol-5-yl)-3-(4-chlorophenyl-1-yl)urea], the inhibition at 1 µM came to 70%.

As for `CC(C)(C)c1cc(NC(=O)Nc2cccc3ccccc23)n(-c2cccc(OCCCN3CCS(=O)(=O)CC3)c2)n1` [Example 528, 1-(5-t-butyl-2-{3-[3-(1,1-dioxo-16-thiomorpholin-4-yl)-propoxy]-phenyl}-2H-pyrazol-3-yl)-3-naphthalen-1-yl-urea], the inhibition at 1 µM is 35%.

The same experiment, now with this note: read-out: % Inhibition @ concentration, Table 3; at 10 uM.
Turning to `CN1CCN(C(=O)NCc2cccc(-n3nc(C(C)(C)C)cc3NC(=O)Nc3ccc(Cl)cc3)c2)CC1` [Example 493, 1-(3-t-butyl-1-{3-[(1-methylpiperazine-4-carboxamido)methyl]phenyl}-1H-pyrazol-5-yl)-3-(4-chlorophenyl)urea], the inhibition at 10 µM stood at 73%. `CCOC(=O)CCc1cccc(-n2nc(C(F)(F)F)cc2NC(=O)Nc2ccc(Cl)cc2)c1` [Example 529, 3-(3-{5-[3-(4-chloro-phenyl)-ureido]-3-trifluoromethyl-pyrazol-1-yl}-phenyl)-propionic acid ethyl ester]: the inhibition at 10 µM stood at 40%.

As to `O=C(O)CCc1cccc(-n2nc(C(F)(F)F)cc2NC(=O)Nc2ccc(Cl)cc2)c1` [Example 530, 3-(3-(5-(3-(4-chlorophenyl)ureido)-3-(trifluoromethyl)-1H-pyrazol-1-yl)phenyl)propanoic acid], the inhibition at 10 µM was 83%. For the compound `CCOC(=O)CCc1cccc(-n2nc(C)cc2NC(=O)Nc2ccc(Cl)cc2)c1` [Example 531, 3-(3-{5-[3-(4-chloro-phenyl)-ureido]-3-methyl-pyrazol-1-yl}-phenyl)-propionic acid ethyl ester], the inhibition at 10 µM amounted to 14%.

In general, IC50 refers to the concentration that inhibits the measured activity by half. Higher therefore signals lower potency.
